According to US12509734B2, “Systems and methods to assess microbiomes and treatments thereof” (priority 2013, dated 2025):

System: vaginal microbiota (PB-primer target groups)
Test: PB-qPCR microbial profiles of vaginal swabs of recurrent BV patients (Example 2)
Format: in vivo, human
Conditions: P4
Procedure: Sample processing, DNA extraction, and qPCR. Microbial gDNA was purified from swabs in 1-2 ml saline or lysis solution by a high SDS/alkaline lysis—phenol extraction protocol as described previously in Lambert and resuspended in 200 μL TE (10 mM Tris, pH 8, 1 mM EDTA). The lysed bacterial gDNA is stable for over one month at room temperature in lysis solution buffer (data not shown) and this buffer prevents changes in titer due to possible stability issues with different strains of bacteria in saline. An aliquot of purified DNA was assayed by qPCR with 18 universal and phylogenetic branch-inclusive (PB) primers and PCR conditions as described previously in Lambert. Additional primers, targeting the Enterococcus genus and its cytolysin gene CyILL, are provided in SEQ ID NOs: 92 and 95 (Enterococcus), and 93 and 96 (cytolysin gene). Each PB-primer targets a branch of the phylogenetic tree, from whole phyla to family or genus, and is far more inclusive than species-specific primers. Relative LB composition of the vaginal microbiome was determined by dividing the Lactobacillaceae titer by the sum of all PB-primers and by using the disclosed LB-blocker approach. Briefly, the LB-blocker approach uses the difference between the quantitative cycles (Cq) of two parallel qPCR reactions with universal primers targeting the 16S rRNA gene, when one of the reactions is in the presence of LB spp.-specific blocking oligomers (LB-blockers) that have been chemically modified to prevent extension and that partially overlap the universal primer binding site, effectively rendering the LB DNA “invisible” to the universal PCR, even when LB gDNA is present at great excess compared to non-LB gDNA, as is common in healthy and PT samples. PB-primers amplicons were selectively sequenced to confirm they were correctly targeted and to identify the dominant species. These were “cleaned” enzymatically as described in Lambert, and Sanger sequenced at Functional Biosciences (Madison, WI). Sequences were uploaded to Ribosomal Database Project II using its Pipeline function; species were identified based on phylogenetic trees constructed in Molecular Evolutionary Genetics Analysis (MEGA5) software.
Calculations. Cq values from qPCR reactions were converted to molecules per reaction by comparing sample Cq values to a standard curve from the same run of Cq values derived from dilutions of an amplicon of known target of known concentration. Molecules per reaction were converted to cells per swab, assuming an average of 5 ribosomal genes per cell and proportioned to the ratio of the volume of the sample used in the DNA prep and the amount of sample used in the qPCR reaction. Delta Cq (ΔCq) values of LB-blocked reaction pairs were calculated as Cq (blocked sample)−Cq (unblocked sample). Differences between patient groups were compared using the t test in (GraphPad software).

SMILES: CCS(=O)(=O)CCn1c([N+](=O)[O-])cnc1C [tinidazole]
- Relative level of the 7 non-LB targets detected after treatment: under 0.1%
- Response to treatment (microbial profile): responded well
